The nature of this data set: Storage stability: creatinine (creatine decomposition product) content after storage. In kind it is physicochemical. To be noted: for Creatinine content / Observations: 40° C., 28 days. Here is the method: A creatine-citric acid compound (3:1) (KC) as pure substance and mixtures of this compound (3:1) with 1, 5 and 10% by weight addition of a carbohydrate (CH) were stored for 28 days at 60° C. and then the contents of the creatine decomposition product creatinine were determined.

Setting [1] is: Addition: 1% by weight carbohydrate (CH).
[2] abbreviates: Addition: 5% by weight carbohydrate (CH).
The mark [3] stands for this setting: Addition: 10% by weight carbohydrate (CH).

In the case of `CN(CC(=O)O)C(=N)N.CN(CC(=O)O)C(=N)N.CN(CC(=O)O)C(=N)N.O=C(O)CC(O)(CC(=O)O)C(=O)O` [KC without CH, creatine-citric acid compound (3:1)], the Creatinine content under setting [1] came out at 770 ppm, the Creatinine content under setting [2] amounted to 770 ppm and the Creatinine content under setting [3] was 770 ppm. In addition, the Observations result by setting is: under setting [1], “white”; under setting [2], “white”; under setting [3], “white”. The “creatinine content, initial data” value (reference substance before storage, limit of detection) is listed as below 67 ppm.

The values are drawn from US20050037069A1, “Solid and stable creatine/citric acid composition(s) and compositions carbohydrate(s) or hydrates thereof, method for the production and use thereof” (priority 2002, published 2005).
